Test results as given in PubChem BioAssay AID248 (DTP/NCI, 2004).
“And” between values parts separate entries of the source, which are not always exact repeats. Equal values may be shown once. Inconclusive results and toxic doses are left out.

System: L1210 leukemia ip in BDF1 mice, survival T/C
Experiment: NCI In Vivo Anticancer Drug Screen. Data for tumor model L1210 Leukemia (intraperitoneal) in B6D2F1 (BDF1) mice
Conditions: endpoint: mean survival time, higher = longer survival
Summary of the method: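 Transplantable tumor model; survival measured in treated vs vehicle control mice. Value = treated/control.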

[1] = dose: 100.0 mg/kg/injection, schedule: Q01DX001 (ip), vehicle: saline with Tween-80
[2] = dose: 200.0 mg/kg/injection, schedule: Q01DX001 (ip), vehicle: saline with Tween-80
[3] = dose: 12.5 mg/kg/injection, schedule: Q01DX009 (ip), vehicle: saline with Tween-80
[4] = dose: 25.0 mg/kg/injection, schedule: Q01DX009 (ip), vehicle: saline with Tween-80
[5] = dose: 50.0 mg/kg/injection, schedule: Q01DX009 (ip), vehicle: saline with Tween-80
[6] = dose: 100.0 mg/kg/injection, schedule: Q01DX009 (ip), vehicle: saline with Tween-80
[7] = dose: 200.0 mg/kg/injection, schedule: Q01DX009 (ip), vehicle: saline with Tween-80
[8] = dose: 400.0 mg/kg/injection, schedule: Q01DX009 (ip), vehicle: saline with Tween-80
[9] = dose: 100.0 mg/kg/injection, schedule: Q01DX009 (ip), vehicle: Klucel (hydroxypropylcellulose) (HPC)
[10] = dose: 100.0 mg/kg/injection, schedule: Q04DX003 (ip), vehicle: Klucel (hydroxypropylcellulose) (HPC)
[11] = dose: 200.0 mg/kg/injection, schedule: Q01DX009 (ip), vehicle: Klucel (hydroxypropylcellulose) (HPC)
[12] = dose: 200.0 mg/kg/injection, schedule: Q04DX003 (ip), vehicle: Klucel (hydroxypropylcellulose) (HPC)
[13] = dose: 400.0 mg/kg/injection, schedule: Q04DX003 (ip), vehicle: Klucel (hydroxypropylcellulose) (HPC)
[14] = dose: 100.0 mg/kg/injection, schedule: Q04DX003 (ip), vehicle: saline with Tween-80
[15] = dose: 200.0 mg/kg/injection, schedule: Q04DX003 (ip), vehicle: saline with Tween-80
[16] = dose: 400.0 mg/kg/injection, schedule: Q04DX003 (ip), vehicle: saline with Tween-80
[17] = dose: 100.0 mg/kg/injection, schedule: Q04DX002 (ip), vehicle: saline
[18] = dose: 400.0 mg/kg/injection, schedule: Q01DX009 (ip), vehicle: Klucel (hydroxypropylcellulose) (HPC)
[19] = dose: 100.0 mg/kg/injection, schedule: Q04DX003 (ip), vehicle: saline
[20] = dose: 200.0 mg/kg/injection, schedule: Q04DX003 (ip), vehicle: saline

`CC(C)(C)NC(c1ccccc1)C(NC(C)(C)C)c1ccccc1` (stereo unspecified) was tested, and the T/C (dose: 50.0 mg/kg/injection, schedule: Q01DX001 (ip), vehicle: saline with Tween-80) was 91 % of control, the T/C [1] was 91 % of control and the T/C [2] was 94 % of control.

For `O=C(CNC(=O)NCc1ccccc1)N/N=C/c1cccc([N+](=O)[O-])c1`, the T/C [3] was 91 % of control, the T/C [4] was 88 % of control and the T/C [5] was 92 % of control and 88 % of control.

`O=[N+]([O-])c1cc(C(F)(F)F)cc([N+](=O)[O-])c1N/N=C/c1ccccc1Cl` was tested, and the T/C [6] was 91 % of control, the T/C [7] was 95 % of control and the T/C [8] was 90 % of control.

For `CCCCOC(=O)Oc1ccc(C(=O)Oc2ccc(OCC)cc2)cc1`, the T/C [9] was 111 % of control, the T/C [10] was 104 % of control and the T/C [11] was 106 % of control. For the same compound, the T/C [12] was 109 % of control and the T/C [13] was 98 % of control.

`O=C1C(Cl)=C(N2CC2)C(=O)c2ccccc21` was tested, and the T/C (dose: 2.5 mg/kg/injection, schedule: Q01DX009 (ip), vehicle: Klucel (hydroxypropylcellulose) (HPC)) was 107 % of control and the T/C (dose: 5.0 mg/kg/injection, schedule: Q01DX009 (ip), vehicle: Klucel (hydroxypropylcellulose) (HPC)) was 93 % of control.

With `CCCCN(C)N=Nc1ccc(S(N)(=O)=O)cc1` the T/C (dose: 30.0 mg/kg/injection, schedule: Q01DX Z (ip), vehicle: carboxymethylcellulose (CMC)) was 92 % of control, the T/C (dose: 60.0 mg/kg/injection, schedule: Q01DX Z (ip), vehicle: carboxymethylcellulose (CMC)) was 92 % of control and the T/C (dose: 90.0 mg/kg/injection, schedule: Q01DX Z (ip), vehicle: carboxymethylcellulose (CMC)) was 105 % of control.

`NC(=O)C1=CN(Cc2ccccc2)C=CC1` was tested, and the T/C [14] was 100 % of control, the T/C [15] was 106 % of control and the T/C [16] was 94 % of control.

In the case of `CCCCNC(=O)n1nnc2ccccc21`, the T/C (dose: 100.0 mg/kg/injection, schedule: Q04DX002 (ip), vehicle: saline with Tween-80) is reported as 100 % of control and 103 % of control, the T/C (dose: 200.0 mg/kg/injection, schedule: Q04DX002 (ip), vehicle: saline with Tween-80) is reported as 105 % of control and 92 % of control and the T/C (dose: 400.0 mg/kg/injection, schedule: Q04DX002 (ip), vehicle: saline with Tween-80) is reported as 96 % of control and 116 % of control.

In the case of `S=P(Nc1ccccc1)(Nc1ccccc1)Nc1ccccc1`, the T/C (dose: 50.0 mg/kg/injection, schedule: Q01DX009 (ip), vehicle: Klucel (hydroxypropylcellulose) (HPC)) is reported as 96 % of control, the T/C [9] is reported as 98 % of control and the T/C [11] is reported as 98 % of control.

In the case of `CN(CCCN)CCCN`, the T/C (dose: 25.0 mg/kg/injection, schedule: Q04DX002 (ip), vehicle: saline) is reported as 115 % of control, the T/C (dose: 50.0 mg/kg/injection, schedule: Q04DX002 (ip), vehicle: saline) is reported as 96 % of control and the T/C [17] is reported as 100 % of control and 104 % of control.

For `Clc1ccc(C=Nc2cccc3ccccc23)cc1Cl`, the T/C [6] was 95 % of control, the T/C [7] was 95 % of control and the T/C [8] was 94 % of control.

For `CCOC(=O)NC(C)(CC)c1ccccc1` (stereo unspecified), the T/C (dose: 100.0 mg/kg/injection, schedule: Q01DX001 (ip), vehicle: other) was 105 % of control, the T/C (dose: 200.0 mg/kg/injection, schedule: Q01DX001 (ip), vehicle: other) was 109 % of control and the T/C (dose: 400.0 mg/kg/injection, schedule: Q01DX001 (ip), vehicle: other) was 117 % of control.

For `CCOC(=O)c1c(C)[nH]c(C)cc1=O`, the T/C [1] was 95 % of control, the T/C [6] was 98 % of control and the T/C [2] was 95 % of control. The T/C [7] was 102 % of control, the T/C (dose: 400.0 mg/kg/injection, schedule: Q01DX001 (ip), vehicle: saline with Tween-80) was 90 % of control and the T/C [8] was 95 % of control.

`CC1CCC(OC(C[N+](=O)[O-])C(Cl)(Cl)Cl)CC1` (stereo unspecified) was tested, and the T/C [6] was 93 % of control, the T/C [14] was 106 % of control and the T/C [7] was 91 % of control. For the same compound, the T/C [15] was 101 % of control, the T/C [8] was 90 % of control and the T/C [16] was 104 % of control.

In the case of `CCCCCCCCC(=O)NCCCOC`, the T/C [9] is reported as 108 % of control, the T/C [10] is reported as 96 % of control and the T/C [11] is reported as 111 % of control. For the same compound, the T/C [12] was 91 % of control, the T/C [18] was 97 % of control and the T/C [13] was 91 % of control.

For `OCC1OC(n2cnc3c2ncn2nnnc32)C(O)C1O` (stereo unspecified), the T/C (dose: 100.0 mg/kg/injection, schedule: Q01DX005 (ip), vehicle: saline) was 100 % of control and the T/C (dose: 200.0 mg/kg/injection, schedule: Q01DX005 (ip), vehicle: saline) was 110 % of control.

For `C/C=C/C(=O)Nc1cccc(OC(=O)NC(C)CC)c1` (stereo unspecified), the T/C [14] was 98 % of control, the T/C [15] was 87 % of control and the T/C [16] was 93 % of control.

For `C[CH2][Pb]([CH2]C)([CH2]C)[S]c1ccccn1`, the T/C (dose: 25.0 mg/kg/injection, schedule: Q04DX002 (sc), vehicle: olive oil, sesame oil, peanut oil) was 95 % of control, the T/C (dose: 50.0 mg/kg/injection, schedule: Q04DX002 (sc), vehicle: olive oil, sesame oil, peanut oil) was 100 % of control and the T/C (dose: 100.0 mg/kg/injection, schedule: Q04DX002 (sc), vehicle: olive oil, sesame oil, peanut oil) was 100 % of control.

With `CC1CCCCN1` (stereo unspecified) the T/C [17] was 105 % of control, the T/C (dose: 200.0 mg/kg/injection, schedule: Q04DX002 (ip), vehicle: saline) was 94 % of control and the T/C (dose: 400.0 mg/kg/injection, schedule: Q04DX002 (ip), vehicle: saline) was 112 % of control.

`Cc1cc(N(CCOS(C)(=O)=O)CCOS(C)(=O)=O)ccc1C=Nc1cc(Cl)c(O)c(Cl)c1` was tested, and the T/C (dose: 20.0 mg/kg/injection, schedule: Q04DX003 (ip), vehicle: Klucel (hydroxypropylcellulose) (HPC)) was 121 % of control, the T/C (dose: 40.0 mg/kg/injection, schedule: Q04DX003 (ip), vehicle: Klucel (hydroxypropylcellulose) (HPC)) was 118 % of control and the T/C (dose: 80.0 mg/kg/injection, schedule: Q04DX003 (ip), vehicle: Klucel (hydroxypropylcellulose) (HPC)) was 100 % of control.

In the case of `NNC(=O)Cc1ccccc1`, the T/C [19] is reported as 94 % of control and the T/C [20] is reported as 89 % of control.

In the case of `CC(=O)O/N=C(/C)c1ccccc1`, the T/C (dose: 75.0 mg/kg/injection, schedule: Q01DX009 (ip), vehicle: saline sonified) is reported as 102 % of control, the T/C (dose: 100.0 mg/kg/injection, schedule: Q04DX003 (ip), vehicle: saline sonified) is reported as 100 % of control and the T/C (dose: 150.0 mg/kg/injection, schedule: Q01DX009 (ip), vehicle: saline sonified) is reported as 100 % of control. For the same compound, the T/C (dose: 200.0 mg/kg/injection, schedule: Q04DX003 (ip), vehicle: saline sonified) was 97 % of control and the T/C (dose: 400.0 mg/kg/injection, schedule: Q04DX003 (ip), vehicle: saline sonified) was 100 % of control.

`COc1cc(N)c(CC2c3cc(OC)c(OC)cc3CCN2C)cc1OC` (stereo unspecified) was tested, and the T/C (dose: 75.0 mg/kg/injection, schedule: Q01DX001 (ip), vehicle: carboxymethylcellulose (CMC)) was 95 % of control and the T/C (dose: 150.0 mg/kg/injection, schedule: Q01DX001 (ip), vehicle: carboxymethylcellulose (CMC)) was 95 % of control.

With `C=CC1CCCCC1C=C` (stereo unspecified) the T/C [3] was 104 % of control, the T/C [4] was 102 % of control and the T/C [5] was 102 % of control.

With `CC1NC(=O)NC1=O` (stereo unspecified) the T/C [9] was 103 % of control, the T/C [10] was 98 % of control and the T/C [11] was 95 % of control. The T/C [12] was 98 % of control, the T/C [18] was 100 % of control and the T/C [13] was 101 % of control.

With `O=CN1CCCc2cc(C(=O)O)ccc21` the T/C (dose: 100.0 mg/kg/injection, schedule: Q01DX009 (ip), vehicle: saline) was 90 % of control, the T/C (dose: 200.0 mg/kg/injection, schedule: Q01DX009 (ip), vehicle: saline) was 93 % of control and the T/C (dose: 400.0 mg/kg/injection, schedule: Q01DX009 (ip), vehicle: saline) was 86 % of control.

`[N-]=[N+]=c1c(=O)c2ccccc2c1=O` was tested, and the T/C [6] was 103 % of control, the T/C [7] was 97 % of control and the T/C [8] was 96 % of control.

`COCC1C2CC(=O)OC2C(I)C1OC(=O)c1ccc(-c2ccccc2)cc1` (stereo unspecified) was tested, and the T/C [10] was 100 % of control, the T/C [12] was 104 % of control and the T/C [13] was 91 % of control.

`COC1OC(CO)C(O)C([N+](=O)[O-])C1O` (stereo unspecified) was tested, and the T/C [19] was 98 % of control, the T/C [20] was 102 % of control and the T/C (dose: 400.0 mg/kg/injection, schedule: Q04DX003 (ip), vehicle: saline) was 105 % of control.

For `CCOC(=O)CCC(NC(=O)c1cc(Cl)c(N(CC)Cc2cnc3nc(N)nc(N)c3n2)c(Cl)c1)C(=O)OCC` (stereo unspecified), the T/C (dose: 25.0 mg/kg/injection, schedule: Q01DX009 (ip), vehicle: Klucel (hydroxypropylcellulose) (HPC)) was 179 % of control.

`CC(=O)[O][Hg][c]1cc2c(cc1N)C(=O)c1ccccc1-2` was tested, and the T/C (dose: 12.5 mg/kg/injection, schedule: Q01DX001 (ip), vehicle: carboxymethylcellulose (CMC)) was 102 % of control.
